# From US5753648A, “Tricyclic benzazepine vasopressin antagonists” (American Cyanamid Company, priority 1996, dated 1998)
# Counter-ions that a name gives are not always drawn.
# What was measured:
# [1] = biological target: T1, Rat Kidney Medullary V2 Receptors (Rattus norvegicus, UniProt Q00788); experiment: biochemical; type: binding
# T1 construct: Medullary tissues from rat kidneys are dissected out; from tissue; host or cells: rat kidney medulla membranes
# Experimental: Binding Assay to Rat Kidney Medullary V2 Receptors
# Medullary tissues from rat kidneys are dissected out, cut into small pieces and soaked in a […] sodium chloride solution containing 1.0 mM EDTA with many changes of the liquid phase, until the solution is clear of blood. The tissue is homogenized in a 0.25M sucrose solution containing 1.0 mM EDTA and 0.1 mM PMSF using a Potter-Elvehjem homogenizer with a teflon pestle. The homogenate is filtered through several layers (4 layers) of cheese cloth. The filtrate is rehomogenized using a dounce homogenizer, with a tight fitting pestle. The final homogenate is centrifuged at 1500×g for 15 min. The nuclear pellet is discarded and the supernatant fluid recentrifuged at 40,000×g for 30 min. The resulting pellet formed contains a dark inner part with the exterior, slightly pink. The pink outer part is suspended in a small amount of 50.0 mM Tris.HCl buffer, pH 7.4. The protein content is determined by the Lowry's method (Lowry et al, J. Biol. Chem., 1953). The membrane suspension is stored at -70° C., in 50.0 mM Tris.HCl, containing 0.2% inactivated BSA and 0.1 mM PMSF in aliquots of 1.0 ml containing 10.0 mg protein per ml of suspension until use in subsequent binding experiments.
# For binding experiments, the following is added in μl volume to wells of a 96 well format of a microtiter plate: 100.0 μl of 100.0 mM Tris.HCl buffer containing 0.2% heat inactivated BSA, 10.0 mM MgCl2 and a mixture of protease inhibitors: leupeptin, 1.0 mg %; aprotinin, 1.0 mg %; 1,10-phenanthroline, 2.0 mg %; trypsin inhibitor, 10.0 mg % and 0.1 mM PMSF, 20.0 μl of [^3 H] Arginine^8, vasopressin (S.A. 75.0 Ci/mmole) at 0.8 nM and the reaction initiated by the addition of 80.0 μl of tissue membranes (200.0 μg tissue protein). The plates are left undisturbed on the bench top for 120 min. to reach equilibrium. Non-specific binding is assessed in the presence of 1.0 μM of unlabeled ligand, added in 20 μl volume. For test compounds, these are solubilized in 50% dimethylsulfoxide (DMSO) and added in 20.0 μl volume to a final incubation volume of 200 μl. Upon completion of binding, the content of each well is filtered off, using a Brandel® cell Harvester (Gaithersburg, Md.). The radioactivity trapped on the filter disk by the ligand-receptor complex is assessed by liquid scintillation counting in a Packard LS Counter, with an efficiency of 65% for tritium. The data are analyzed for IC50 values by the LUNDON-2 program for competition (LUNDON SOFTWARE, Ohio).
# oxytocin receptors = biological target: T2, oxytocin receptors (Rattus norvegicus, UniProt P70536); experiment: Oxytocin Receptor Binding; conditions: for IC50: rat uterine membranes, [3H]oxytocin
# T2 sequence (P70536 1-388): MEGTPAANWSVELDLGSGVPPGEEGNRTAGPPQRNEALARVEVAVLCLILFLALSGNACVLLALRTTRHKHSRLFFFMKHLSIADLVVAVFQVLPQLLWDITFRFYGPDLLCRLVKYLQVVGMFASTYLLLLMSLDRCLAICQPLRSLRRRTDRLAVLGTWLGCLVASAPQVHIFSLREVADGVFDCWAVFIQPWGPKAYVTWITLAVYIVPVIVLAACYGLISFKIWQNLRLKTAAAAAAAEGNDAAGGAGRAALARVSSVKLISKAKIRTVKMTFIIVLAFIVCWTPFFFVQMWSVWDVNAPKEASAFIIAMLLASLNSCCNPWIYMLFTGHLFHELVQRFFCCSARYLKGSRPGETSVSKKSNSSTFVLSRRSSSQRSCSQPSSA
# T1 sequence (Q00788 whole entry): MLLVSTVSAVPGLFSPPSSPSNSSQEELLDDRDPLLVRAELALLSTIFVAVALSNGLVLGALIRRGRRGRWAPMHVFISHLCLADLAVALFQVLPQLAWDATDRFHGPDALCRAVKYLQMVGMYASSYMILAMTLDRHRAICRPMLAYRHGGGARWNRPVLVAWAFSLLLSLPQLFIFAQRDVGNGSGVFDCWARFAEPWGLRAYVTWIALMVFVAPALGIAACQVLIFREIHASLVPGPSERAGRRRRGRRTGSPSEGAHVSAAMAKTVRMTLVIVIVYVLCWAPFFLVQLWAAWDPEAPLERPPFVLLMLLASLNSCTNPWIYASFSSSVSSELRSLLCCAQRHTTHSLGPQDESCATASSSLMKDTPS
inhibition at 10 µM [1] [%],inhibition at 10 µM (oxytocin receptors; dose 10 μM) [%],inhibition at 1 µM [1] [%],IC50 (oxytocin receptors) [nM],SMILES,further results
58,66,,,O=C(Nc1ccc(C(=O)N2Cc3cccn3Cc3ccccc32)cn1)c1ccc(F)cc1F [Example 7],
,,93,,O=C(Nc1ccc(C(=O)N2Cc3cccn3Cc3ccccc32)cn1)c1cc(Br)ccc1Cl [Example 11],
,96,99,580,O=C(Nc1ccc(C(=O)N2Cc3cccn3Cc3ccccc32)cn1)c1cc(Cl)ccc1Cl [Example 14],
92,57,,,"Cc1ccc(F)cc1C(=O)N(CCN(C)C)c1ccc(C(=O)N2Cc3cccn3Cc3ccccc32)cn1 [Example 130, N-[2-(Dimethylamino)ethyl]-N-[5-(5H-pyrrolo[2,1-c][1,4]benzodiazepin-10(11H)-ylcarbonyl)-2-pyridinyl]-5-fluoro-2-methylbenzamide]",
,60,82,,"Cc1ccc(F)cc1C(=O)N(CCCN(C)C)c1ccc(C(=O)N2Cc3cccn3Cc3ccccc32)cn1 [Example 131, N-[3-(Dimethylamino)propyl]-N-[5-(5H-pyrrolo[2,1-c][1,4]benzodiazepin-10(11H)-ylcarbonyl)-2-pyridinyl]-5-fluoro-2-methylbenzamide]",
94,,,,"Cc1ccc(F)cc1C(=O)Nc1ccc(C(=O)N2Cc3cccn3-c3ncccc32)cn1 [Example 134, N-[5-(Pyrido[3,2-e]pyrrolo[1,2-a]pyrazin-5(6H)-ylcarbonyl)-2-pyridinyl]-5-fluoro-2-methylbenzamide]",inhibition at 1 µM (oxytocin receptors; dose 1 μM): 63%
,73,,1100,"Cc1ccc(F)cc1C(=O)Nc1ccc(C(=O)N2Cc3cccn3-c3ccccc32)cn1 [Example 171, N-[5-(Pyrrolo[1,2-a]quinoxalin-5(4H)-ylcarbonyl)-2-pyridinyl]-5-fluoro-2-methylbenzamide]",
,,79,,"Cc1ncccc1C(=O)Nc1ccc(C(=O)N2Cc3cccn3Cc3ccccc32)cn1 [Example 330, N-[5-(5H-Pyrrolo[2,1-c][1,4]benzodiazepin-10(11H)-ylcarbonyl]-2-pyridinyl]-2-methylpyridine-3-carboxamide Hydrochloride]","Oxytocin Binding Assay % Inhibition (oxytocin receptors; dose 10 μM, Hydrochloride): 93%; IC50 (oxytocin receptors; Hydrochloride): 990 nM"
,83,86,2050,"Cc1occc1C(=O)Nc1ccc(C(=O)N2Cc3cccn3Cc3ccccc32)cn1 [Example 353, N-[5-(5H-Pyrrolo[2,1-c][1,4]benzodiazepine-10(11H)-ylcarbonyl)-2-pyridinyl]-2-methylfurane-3-carboxamide]",

# The remaining lines, values behind:
SMILES,inhibition at 10 µM [1] [%],inhibition at 10 µM (oxytocin receptors; dose 10 μM) [%],inhibition at 1 µM [1] [%],IC50 (oxytocin receptors) [nM],further results
O=C(Nc1ccc(C(=O)N2Cc3cccn3Cc3ccccc32)cn1)c1ccccc1-c1ccccc1 [Example 10],,,95,,
O=C(Nc1ccc(C(=O)N2Cc3cccn3Cc3ccccc32)cn1)c1c(F)cccc1Cl [Example 18],,,94,310,inhibition at 5 µM (oxytocin receptors; dose 5 μM): 97%
O=C(Nc1ccc(C(=O)N2Cc3cccn3Cc3ccccc32)cn1)c1ccccc1[N+](=O)[O-] [Example 43],,99,,920,
"Cc1ccc(F)cc1C(=O)Nc1ccc(C(=O)N2Cc3ccc(CN(C)C)n3Cc3ccccc32)cn1 [Example 120, N-[5-[[3-[(Dimethylamino)methyl]-[5H-pyrrolo[2,1-c][1,4]benzodiazepin-10(11H)]-yl]carbonyl]-2-pyridinyl]-5-fluoro-2-methylbenzamide]",,,,,inhibition at 1 µM (oxytocin receptors; dose 1 μM): 8%
"CC(C)CNc1ccc(C(=O)N2Cc3cccn3Cc3ccccc32)cn1 [Example 261, 10-[[6-[(2-Methylpropyl)amino]-3-pyridinyl]carbonyl]-10,11-dihydro-5H-pyrrolo[2,1-c][1,4]benzodiazepine]",55,,32,150,
CC(C)(C)CCNc1ccc(C(=O)N2Cc3cccn3Cc3ccccc32)cn1 [Example 262],,76,50,1600,
Cc1ccccc1CNc1ccc(C(=O)N2Cc3cccn3Cc3ccccc32)cn1 [Example 274],97,,,,
"O=C(c1ccc(SC2CCCCC2)nc1)N1Cc2cccn2Cc2ccccc21 [Example 288, 10,11-Dihydro-10-[[6-(cyclohexylthio)-3-pyridinyl]carbonyl]-5H-pyrrolo-[2,1-c][1,4]benzodiazepine]",54,94,,1360,
"Cc1ccccc1Nc1ccc(C(=O)N2Cc3cccn3Cc3ccccc32)cn1 [Example 301, 10,11-Dihydro-10-[[6-[(2-methylphenyl)amino]-3-pyridinyl]carbonyl]-5H-Pyrrolo[2,1-c][1,4]benzodiazepine]",91,89,,860,
O=C(Nc1ccc(C(=O)N2Cc3cccn3Cc3ccccc32)c(Cl)c1)c1ccccc1-c1ccc(C(F)(F)F)cc1 [Example 326],91,,,,inhibition at 1 µM (oxytocin receptors; dose 1 μM): 0%
"CN1CCN(c2ncccc2C(=O)Nc2ccc(C(=O)N3Cc4cccn4Cc4ccccc43)cc2)CC1 [Example 331, N-[4-(5H-Pyrrolo[2,1-c][1,4]benzodiazepin-10(11H)-ylcarbonyl)phenyl]-2-[N-methylpiperazinyl]-pyridine-3-carboxamide Hydrochloride]",,,43,,"Oxytocin Binding Assay % Inhibition (oxytocin receptors; dose 1 μM, Hydrochloride): 13%"
"CNc1ncccc1C(=O)Nc1ccc(C(=O)N2Cc3cccn3Cc3ccccc32)cc1 [Example 334, N-[4-(5H-Pyrrolo[2,1-c][1,4]benzodiazepin-10(11H)-ylcarbonyl)phenyl]-2-(methylamino)pyridine-3-carboxamide]",,,79,,inhibition at 1 µM (oxytocin receptors; dose 1 μM): 5%
"O=C(Nc1ccc(C(=O)N2Cc3cccn3Cc3ccccc32)cc1)c1cccnc1N1CCCCC1 [Example 336, N-[4-(5H-Pyrrolo[2,1-c][1,4]benzodiazepin-10(11H)-ylcarbonyl)phenyl]-2-(1-piperidinyl)-pyridine-3-carboxamide]",,94,69,1630,
"O=C(Nc1ccc(C(=O)N2Cc3cccn3Cc3ccccc32)cc1)c1cccnc1N1CCOCC1 [Example 339, N-[4-(5H-Pyrrolo[2,1-c][1,4]benzodiazepin-10(11H)-ylcarbonyl)phenyl]-2-(morpholino)-pyridine-3-carboxamide]",,48,55,8560,
"CCCCOc1ccc(C(=O)N2Cc3cc(CO)nn3Cc3ccccc32)cc1 [Example 344, 5,10-Dihydro-2-hydroxymethyl-5-(4-(4-butyloxy)benzoyl)-4H-pyrazolo[5,1-c][1,4]benzodiazepine]",,,,3800,inhibition at 1 µM (oxytocin receptors; dose 1 μM): 58%
"O=C(Nc1ccc(C(=O)N2Cc3cccn3Cc3ccccc32)cc1)c1cccnc1Oc1ccc(Cl)cc1 [Example 346, N-[4-(5H-Pyrrolo[2,1-c][1,4]benzodiazepin-10(11H)-ylcarbonyl)phenyl]-2-(4-chlorophenyloxy)pyridine-3-carboxamide]",76,,,,inhibition at 1 µM (oxytocin receptors; dose 1 μM): 0%
COc1ccc(CNc2ccc(C(=O)N3Cc4cccn4Cc4ccccc43)cn2)c(OC)c1 [Example 351],,,56,,inhibition at 1 µM (oxytocin receptors; dose 1 μM): 0%
"Nc1ccccc1C(=O)Nc1ccc(C(=O)N2Cc3cccn3Cc3ccccc32)cn1 [Example 354, N-[5-(5H-Pyrrolo[2,1-c][1,4]benzodiazepin-10(11H)-ylcarbonyl)-2-pyridinyl]-2-aminobenzamide]",,,86,,inhibition at 1 µM (oxytocin receptors; dose 1 μM): 7%
